Laboratory results: ChEMBL document CHEMBL1135131, “Nicotinanilides as inhibitors of neutrophil chemotaxis” (Bioorg Med Chem Lett, 2002)

Legend:
[1] = Inhibition against formyl-methionyl-leucyl (FMLP) phenylalanine driven human neutrophil chemotaxis; type: functional
[2] = biological target: T1, Interleukin-8 receptors, CXCR1/CXCR2 (Homo sapiens, UniProt P25025+P25024); test: Inhibition against GRO-alpha driven human neutrophil chemotaxis; type: functional
T1 sequence (P25025 whole entry): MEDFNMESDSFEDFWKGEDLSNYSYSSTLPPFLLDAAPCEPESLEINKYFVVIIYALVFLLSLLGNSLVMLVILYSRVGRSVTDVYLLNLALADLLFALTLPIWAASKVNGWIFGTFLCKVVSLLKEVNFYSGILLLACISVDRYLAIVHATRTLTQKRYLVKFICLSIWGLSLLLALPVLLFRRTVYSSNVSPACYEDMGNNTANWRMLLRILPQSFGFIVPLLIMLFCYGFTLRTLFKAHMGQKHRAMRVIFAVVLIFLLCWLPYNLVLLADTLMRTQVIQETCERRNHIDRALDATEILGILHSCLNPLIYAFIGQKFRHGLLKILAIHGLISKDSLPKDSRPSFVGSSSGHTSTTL
T1 sequence (P25024 whole entry): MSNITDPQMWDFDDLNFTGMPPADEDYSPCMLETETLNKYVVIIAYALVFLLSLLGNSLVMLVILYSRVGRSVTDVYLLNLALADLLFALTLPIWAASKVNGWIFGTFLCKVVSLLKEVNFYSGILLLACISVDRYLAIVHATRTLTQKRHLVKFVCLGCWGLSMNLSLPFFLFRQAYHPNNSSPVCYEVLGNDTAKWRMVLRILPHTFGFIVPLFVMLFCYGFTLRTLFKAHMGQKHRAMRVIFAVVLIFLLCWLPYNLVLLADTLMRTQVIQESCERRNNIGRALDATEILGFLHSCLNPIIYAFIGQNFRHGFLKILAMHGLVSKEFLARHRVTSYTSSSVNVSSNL

[3] = biological target: T2, C-X-C chemokine receptor type 2 (Homo sapiens, UniProt P25025); test: Displacement of [125I]IL-8 from CHO cell membranes expressing human […] chemokine receptor 2 (CXCR2 filter mat binding assay)
T2 sequence (P25025 whole entry): T1 sequence (P25025 whole entry)

[4] = biological target: T2, C-X-C chemokine receptor type 2; test: Displacement of [125I]IL-8 from CHO cell membranes expressing human […] chemokine receptor 2

O=C(COc1ccc(C(=O)Nc2ccc(F)cc2)cn1)Nc1cccc(Br)c1
IC50 [1]: > 40000 nM | IC50 [2]: 2700 nM

CC(C)CCOC(=O)COc1ccc(C(=O)Nc2ccc(F)cc2)cn1
IC50 [1]: > 40000 nM | IC50 [2]: 200 nM

COC(=O)COc1ccc(NC(=O)c2ccc(F)cc2)cn1
IC50 [2]: 360 nM

CCOC(=O)COc1ccc(C(=O)Nc2ccc(F)cc2)cn1
IC50 [1]: > 40000 nM | IC50 [2]: 160 nM

O=C(O)CCSc1ccc(C(=O)Nc2ccc(F)cc2)cn1
IC50 [2]: > 20000 nM

CCCOC(=O)CSc1ccc(C(=O)Nc2ccc(F)cc2)cn1
IC50 [1]: > 40000 nM | IC50 [2]: 46 nM

O=C(COc1ccc(C(=O)Nc2ccc(F)cc2)cn1)Nc1cccnc1
IC50 [1]: > 40000 nM | IC50 [2]: 220 nM

O=C(COc1ccc(C(=O)Nc2ccc(F)cc2)cn1)OCc1ccccc1
IC50 [1]: > 40000 nM | IC50 [2]: 94 nM

O=C(CSc1ccc(C(=O)Nc2ccc(F)cc2)cn1)OCc1cccc(F)c1
IC50 [2]: 43 nM

O=C(COc1ccc(C(=O)Nc2ccc(F)cc2)cn1)Oc1ccccc1
IC50 [2]: 410 nM

CN(C(=O)COc1ccc(C(=O)Nc2ccc(F)cc2)cn1)c1ccccc1
IC50 [1]: > 40000 nM | IC50 [2]: 12500 nM

O=C(COc1ccc(C(=O)Nc2ccc(F)cc2)cn1)OC1CCCCC1
IC50 [1]: > 40000 nM | IC50 [2]: 220 nM

COC(=O)COc1ccc(C(=O)Nc2ccc(F)cc2)cn1
IC50 [1]: > 40000 nM | IC50 [2]: 110 nM

CNC(=O)COc1ccc(C(=O)Nc2ccc(F)cc2)cn1
IC50 [2]: > 20000 nM

O=C(COc1ccc(C(=O)Nc2ccc(F)cc2)cn1)OCCCCC1CCCCC1
IC50 [1]: > 40000 nM | IC50 [2]: 680 nM

O=C(COc1ccc(C(=O)Nc2ccc(F)cc2)cn1)Nc1ccccc1
IC50 [1]: > 40000 nM | IC50 [2]: 1000 nM

O=C(COc1ccc(C(=O)Nc2ccc(F)cc2)cn1)OCc1cccc(F)c1
IC50 [1]: > 40000 nM | IC50 [2]: 50 nM

O=C(CSc1ccc(C(=O)Nc2ccc(F)cc2)cn1)OCc1ccc(Br)cc1
IC50 [2]: 83 nM

O=C(O)CSc1ccc(C(=O)Nc2ccc(F)cc2)cn1
IC50 [2]: > 20000 nM | IC50 [3]: 1200 nM

O=C(O)CCCSc1ccc(C(=O)Nc2ccc(F)cc2)cn1
IC50 [2]: 5100 nM

COC(=O)CCSc1ccc(C(=O)Nc2ccc(F)cc2)cn1
IC50 [1]: > 40000 nM | IC50 [2]: 760 nM

COC(=O)CSc1ccc(C(=O)Nc2ccc(F)cc2)cn1
IC50 [4]: 32 nM | IC50 [2]: 42 nM

O=C(COc1ccc(C(=O)Nc2ccc(F)cc2)cn1)NC1CCCC1
IC50 [2]: > 20000 nM
